{
  "source": "patent US20210213093A1",
  "about": "“COMPOSITIONS AND METHODS FOR ACTIVATING CELLULAR SIGNALING PATHWAYS” (LifeVantage Corporation, priority 2020, published 2021)",
  "origin": "cited, not measured here",
  "settings": "background statement, no test described",
  "data": [
    {"smiles": "O=C(O)CCCC[C@@H]1CCSS1", "note": "(racemic) [Lipoic acid, lipoic acid]", "values": [
      {"measurement": "antioxidant power relative to vitamin E and vitamin C combined", "result": 400, "unit": "times"}
    ]}
  ]
}
